Here are results for 5 compounds from ChEMBL document CHEMBL1201862, “PubChem BioAssay data set” (2004).

The target in one test is T1, Protein RecA (Mycobacterium tuberculosis, UniProt P9WHJ3).
T1 sequence (P9WHJ3 whole entry): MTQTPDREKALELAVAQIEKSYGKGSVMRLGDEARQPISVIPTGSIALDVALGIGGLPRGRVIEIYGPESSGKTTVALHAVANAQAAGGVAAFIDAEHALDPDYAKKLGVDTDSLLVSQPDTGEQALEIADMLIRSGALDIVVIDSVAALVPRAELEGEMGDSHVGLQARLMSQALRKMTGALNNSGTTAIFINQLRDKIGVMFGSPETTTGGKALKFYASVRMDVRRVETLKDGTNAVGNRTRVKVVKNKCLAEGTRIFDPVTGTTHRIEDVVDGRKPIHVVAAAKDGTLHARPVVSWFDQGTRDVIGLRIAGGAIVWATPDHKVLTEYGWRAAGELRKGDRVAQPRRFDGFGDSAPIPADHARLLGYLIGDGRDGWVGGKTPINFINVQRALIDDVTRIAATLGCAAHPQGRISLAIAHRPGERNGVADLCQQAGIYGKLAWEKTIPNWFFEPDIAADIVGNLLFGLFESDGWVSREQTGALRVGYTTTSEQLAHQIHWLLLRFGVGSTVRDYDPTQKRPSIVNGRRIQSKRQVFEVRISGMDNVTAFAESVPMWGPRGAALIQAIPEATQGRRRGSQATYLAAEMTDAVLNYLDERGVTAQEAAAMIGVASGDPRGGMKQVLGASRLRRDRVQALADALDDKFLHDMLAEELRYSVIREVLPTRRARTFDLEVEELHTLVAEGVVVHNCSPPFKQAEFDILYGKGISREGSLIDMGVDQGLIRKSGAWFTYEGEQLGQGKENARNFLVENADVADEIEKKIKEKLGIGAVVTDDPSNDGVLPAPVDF
As to the kind of experiment: Fluorescence Cell-Free Homogeneous Dose Retest to Identify Inhibitors of RecA-Intein Splicing Activity. [Related pubchem assays (depositor defined):AID2097, AID2223, AID489010, AID492950]. In kind it is functional.

In test [1] the target is T2, Mitochondrial peptide methionine sulfoxide reductase (Bos taurus, UniProt P54149).
T2 sequence (P54149 whole entry): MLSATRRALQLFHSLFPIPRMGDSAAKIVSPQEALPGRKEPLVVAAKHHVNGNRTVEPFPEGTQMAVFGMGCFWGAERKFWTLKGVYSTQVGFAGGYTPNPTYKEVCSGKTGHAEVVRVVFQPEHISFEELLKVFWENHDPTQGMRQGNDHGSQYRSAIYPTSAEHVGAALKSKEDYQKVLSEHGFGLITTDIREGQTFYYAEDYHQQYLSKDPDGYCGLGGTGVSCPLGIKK
Put plainly: Absorbance-based biochemical high throughput dose response assay for activators of Methionine sulfoxide reductase A (MsrA). In kind it is functional.

The target of test [2] is T3, Sentrin-specific protease 6 (Homo sapiens, UniProt Q9GZR1).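 Further: Luminescence-based dose-response confirmatory assay of SENP6 inhibition, following up an ultra-high-throughput screen.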
T3 sequence (Q9GZR1 whole entry): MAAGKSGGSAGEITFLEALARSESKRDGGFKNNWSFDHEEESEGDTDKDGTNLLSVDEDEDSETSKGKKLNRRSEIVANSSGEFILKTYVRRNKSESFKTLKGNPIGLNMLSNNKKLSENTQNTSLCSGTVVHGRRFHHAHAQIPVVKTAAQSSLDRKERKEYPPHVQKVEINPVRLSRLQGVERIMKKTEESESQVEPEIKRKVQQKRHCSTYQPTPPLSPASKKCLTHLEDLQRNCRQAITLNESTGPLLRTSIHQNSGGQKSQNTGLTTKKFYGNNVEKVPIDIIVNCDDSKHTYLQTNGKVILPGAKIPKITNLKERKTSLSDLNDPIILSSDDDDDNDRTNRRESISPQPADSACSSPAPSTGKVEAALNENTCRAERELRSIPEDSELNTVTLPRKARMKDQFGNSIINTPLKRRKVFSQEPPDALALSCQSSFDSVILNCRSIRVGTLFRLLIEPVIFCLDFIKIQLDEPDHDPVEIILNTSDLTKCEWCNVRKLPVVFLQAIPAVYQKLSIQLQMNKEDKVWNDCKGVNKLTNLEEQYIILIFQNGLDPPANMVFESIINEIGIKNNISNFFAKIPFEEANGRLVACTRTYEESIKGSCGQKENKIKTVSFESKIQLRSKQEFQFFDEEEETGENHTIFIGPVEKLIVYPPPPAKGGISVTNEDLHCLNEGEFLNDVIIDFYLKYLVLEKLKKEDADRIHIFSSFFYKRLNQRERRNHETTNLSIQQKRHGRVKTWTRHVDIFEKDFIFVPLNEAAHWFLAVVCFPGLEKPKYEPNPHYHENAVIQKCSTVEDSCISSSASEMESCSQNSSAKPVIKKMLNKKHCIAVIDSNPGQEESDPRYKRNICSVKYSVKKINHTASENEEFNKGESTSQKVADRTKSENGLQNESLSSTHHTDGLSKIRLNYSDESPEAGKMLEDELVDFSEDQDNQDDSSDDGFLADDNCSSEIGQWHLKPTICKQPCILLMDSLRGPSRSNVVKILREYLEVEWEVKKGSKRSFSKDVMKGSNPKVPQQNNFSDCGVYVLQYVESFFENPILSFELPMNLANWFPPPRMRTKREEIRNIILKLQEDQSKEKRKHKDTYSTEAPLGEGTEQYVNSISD
The class given is functional.

Test [3] has as its target Serine/threonine-protein phosphatase (Candida dubliniensis (strain CD36 / CBS 7987 / NCPF 3949 / NRRLY-17841) (Yeast), UniProt B9W6M3). Put plainly: blockers of CaCl2-induced CDRE-lacZ signaling – S. cerevisiae, luminescence, secondary, dose response (AID 2388).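 Further: yeast reporter cells carrying a calcineurin-responsive lacZ construct stimulated with calcium chloride; luminescent beta-galactosidase reporter signal in whole cells rather than isolated phosphatase activity; potency for inhibition where a drop in reporter signal means calcineurin blockade.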 The class given is functional, cell-based.
In another test the test system is HEK293. As to the kind of experiment: HEK293T cell viability loss, resazurin readout – resazurin fluorescence, cytotoxicity control for NF-kB activator project, SAR follow-up (AID 493251). In kind it is functional, cell-based. Particulars: Homo sapiens. On the technique in general: Resazurin is reduced to fluorescent resorufin, in cell work by metabolically active cells.

Activity calls are given as the source filed them.

Chain of Serine/threonine-protein phosphatase (B9W6M3 whole entry): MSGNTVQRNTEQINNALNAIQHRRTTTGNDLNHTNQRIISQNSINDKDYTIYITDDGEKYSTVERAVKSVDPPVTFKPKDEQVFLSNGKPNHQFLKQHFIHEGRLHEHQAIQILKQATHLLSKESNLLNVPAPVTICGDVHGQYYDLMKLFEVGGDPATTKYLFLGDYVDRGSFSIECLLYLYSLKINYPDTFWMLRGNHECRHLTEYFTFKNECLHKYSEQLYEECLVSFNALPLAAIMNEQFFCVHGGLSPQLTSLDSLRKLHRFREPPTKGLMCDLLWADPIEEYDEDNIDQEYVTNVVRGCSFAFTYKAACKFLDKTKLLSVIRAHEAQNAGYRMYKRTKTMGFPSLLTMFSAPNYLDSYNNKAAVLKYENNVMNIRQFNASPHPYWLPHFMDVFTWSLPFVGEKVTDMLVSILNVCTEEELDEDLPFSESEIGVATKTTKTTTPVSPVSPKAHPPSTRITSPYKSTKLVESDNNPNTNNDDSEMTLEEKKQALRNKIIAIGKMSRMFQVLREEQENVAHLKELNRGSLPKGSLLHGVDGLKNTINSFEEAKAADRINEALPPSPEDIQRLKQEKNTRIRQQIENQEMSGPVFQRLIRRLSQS

As to `Cn1nc(-c2ccc(Cl)cc2)nc2c(=O)n(C)c(=O)nc1-2`, on Protein RecA, the EC50 (usually the concentration at which the effect is half-maximal) was 0.0305 µM (active). `NS(=O)(=O)c1ccc(NC(=O)COC(=O)c2ccc([N+](=O)[O-])s2)cc1`: the EC50 in test [1] was > 104 µM (inactive). In addition, the IC50 (usually the midpoint of a concentration-inhibition curve) in test [2] is 4.59 µM (active).

For the compound `CCCCNc1cc(NC(C)=O)cc2cc(OC)c(OC)cc12`, in test [2], the concentration for half-maximal inhibition (IC50) was 6.78 µM (active). Regarding `SC1=Nc2ccccc2C1`, the half-maximal effective concentration (EC50) on Protein RecA is 1.66 µM (active). With `COc1ccc(C(NC(=O)C(C)C)c2ccc3cccnc3c2O)cc1` (configuration not stated), in test [3], the EC50 is > 180 µM (inactive). Also, in the test on HEK293, the IC50 is 41.3 µM (inactive).
